# Results published in US8895514B2, “Composition of tumor-associated peptides and related anti-cancer vaccine for the treatment of glioblastoma (GBM) and other cancers” (Immatics Biotechnologies GmbH, priority 2008, dated 2014).
# Where no end group is shown, it is not given here.
# Columns and labels:
# CD8+ T cells [1] = test: In vitro priming of CD8+ T cells with pMHC/anti-CD28 coated beads, tetramer readout; type: cell-based, human; details: for Positive donors/donors tested / Positive wells/wells tested: healthy donors, CD8+ cells stimulated with high density beads
# Experimental: To perform in vitro stimulations by artificial antigen presenting cells (aAPC) loaded with peptide-MHC complex (pMHC) and anti-CD28 antibody, first we isolated PBMCs (peripheral blood mononuclear cells) from fresh HLA-A*02+ buffy coats by using standard density gradient separation medium (PAA, Cölbe, Germany). Buffy coats were either obtained from the Blood Bank Tübingen or from the Katharinenhospital Stuttgart. Isolated PBMCs were incubated overnight in T-cell medium (TCM) for human in vitro priming consisting of RPMI-Glutamax (Invitrogen, Karlsruhe, Germany) supplemented with 10% heat inactivated human AB serum (PAA, Cölbe, Germany), 100 U/ml Penicillin/100 μg/ml Streptomycin (Cambrex, Verviers, Belgium), 1 mM sodium pyruvate (CC Pro, Neustadt, Germany) and 20 μg/ml Gentamycin (Cambrex). CD8+ lymphocytes were isolated using the CD8+ MACS positive selection kit (Miltenyi, Bergisch Gladbach, Germany) according to the manufacturer's instructions.
# 800.000 beads/200 μl were coated in 96-well plates in the presence of 600 ng biotin anti-CD28 plus 200 ng relevant biotin-pMHC (high density beads) or 2 ng relevant plus 200 ng irrelevant (pMHC library) MHC (low density beads). Stimulations were initiated in 96-well plates by co-incubating 1×10^6 CD8+ T cells with 2×10^5 washed coated beads in 200 μl TCM supplemented with 5 ng/ml IL-12 (PromoCell) for 3-4 days at 37° C. Half of the medium was then exchanged by fresh TCM supplemented with 80 U/ml IL-2 and incubating was continued for 3-4 days at 37° C. This stimulation cycle was performed for a total of three times.
# Results shown have been obtained by stimulation of CD8+ cells with high density beads. As different human serum lots may highly affect the immunogenicity results, only assays in which one and the same serum lot was used, were evaluated together.
# HLA-A*0201 = HLA-A*0201 (Homo sapiens, UniProt P04439, /I218V/L300P/L318F/N151K/N90K/P208A/P217A/Q86G/Q94H/R138H/R169H/T345S); test: ELISA-based MHC refolding assay; type: binding
# Experimental: The amount of de novo-folded HLA/peptide complexes was determined by a quantitative ELISA. Dissociation constants (KD values) were calculated using a standard curve recorded from dilutions of a calibrant HLA/peptide complex.
# CD8+ T cells [2] = test: In vitro priming of CD8+ T cells with pMHC/anti-CD28 coated beads, tetramer readout; type: cell-based, human; details: small number of glioblastoma patients
# [3] = test system: HLA-DR broad antigens (HLA-DR1 to DR7); test: ProImmune REVEAL MHC:peptide binding assay; parameters: species or system human; details: relative to pass/fail control; MET-005 tested as two overlapping 15-mers
# Experimental: The ProImmune REVEAL™ technology employs in vitro HLA-DR assembly assays to determine the on-rates for the MHC:peptide complex as one major determinant of the binding constant of individual peptides. The assay was performed by ProImmune (Oxford, UK). At a fixed time point, the amount of intact MHC:peptide complexes is measured and compared with the amount for a pass/fail control (relative weak binder). A strong, promiscuous HLA-DR binder is included as positive control. Values indicate amount of binding for the individual peptides and HLA-DR molecules relative to the pass/fail control.
# In this assay, binding was compared to that of a pass/fail control binder, and to a positive control peptide for each HLA-DR antigen.
# [4] = out of 18 patients treated, recurrent GBM, intermediate results; cited from earlier work
# anti-survivin T cells = test: Phase I/II vaccination study, T-cell response to Survivin peptide (IFN-g ELISPOT, +/-ICS); type: in vivo, human
compound,measurement,setting,value
CSCC[C@H](NC(=O)[C@@H](N)[C@@H](C)O)C(=O)N[C@@H](CC(C)C)C(=O)N[C@@H](C)C(=O)N[C@@H](CCCNC(=N)N)C(=O)N[C@@H](CC(C)C)C(=O)N[C@@H](C)C(=O)N[C@@H](CO)C(=O)N[C@@H](C)C(=O)O [CSP-001],Positive donors/donors tested,CD8+ T cells [1],100%
same,Positive wells/wells tested,CD8+ T cells [1],57%
same,Kd,"HLA-A*0201; recombinant HLA-A*0201 with b2m, quantitative ELISA, read-out: Dissociation constant (KD) to HLA-A*0201",2.05 nM
GLWHHQTEV (listed as Homo sapiens) [NRCAM-001],Positive donors/donors tested,CD8+ T cells [1],86%
same,Positive wells/wells tested,CD8+ T cells [1],39%
AIIDGVESV (listed as Homo sapiens) [PTP-003],Positive donors/donors tested,CD8+ T cells [1],50%
same,Positive wells/wells tested,CD8+ T cells [1],17%
ALWAWPSEL (listed as Homo sapiens) [BCA-002],immunogenicity in comparison to another BCAN-derived peptide (IMA-BCA-001),CD8+ T cells [1],very immunogenic
same,Positive donors/donors tested,CD8+ T cells [1],75%
same,Positive wells/wells tested,CD8+ T cells [1],35%
same,in vitro immunogenicity in glioblastoma patients,CD8+ T cells [2],immunogenic to a similar extent compared with healthy donors
LTFGDVVAV (listed as Homo sapiens) [FABP7-001],Positive donors/donors tested,CD8+ T cells [1],100%
same,Positive wells/wells tested,CD8+ T cells [1],27%
"TFSYVDPVITSISPKYG (listed as Homo sapiens) [MET-005, MET-derived elongated HLA class I TUMAP]",HLA-DR antigens for which in vitro binding was obtained,[3],HLA-DR11
same,HLA class I binding of the full-length elongated peptide,HLA-A*0201,does not possess HLA class I binding capacities
YVDPVITSI [MET-001],Positive donors/donors tested,CD8+ T cells [1],67%
same,Positive wells/wells tested,CD8+ T cells [1],39%
NLDTLMTYV (listed as Homo sapiens) [NLGN4X-001],Positive donors/donors tested,CD8+ T cells [1],100%
same,Positive wells/wells tested,CD8+ T cells [1],62%
same,in vitro immunogenicity in glioblastoma patients,CD8+ T cells [2],immunogenic to a similar extent compared with healthy donors
KIQEILTQV (listed as Homo sapiens) [IGF2BP3-001],Positive donors/donors tested,CD8+ T cells [1],50%
same,Positive wells/wells tested,CD8+ T cells [1],21%
AMG102: human neutralizing antibody against HGF,patients with minor response,[4],1
same,patients with partial response,[4],1
AMTQLLAGV (listed as Homo sapiens) [TNC-001],Positive donors/donors tested,CD8+ T cells [1],60%
same,Positive wells/wells tested,CD8+ T cells [1],30%
TLGEFLKLDRERAKN (listed as Homo sapiens) [BIR-002],patients with induction of an anti-survivin T-cell response upon vaccination,anti-survivin T cells; among the 16 reacting patients,12
same,patients with pre existing anti-Survivin T cells,anti-survivin T cells; among the 16 reacting patients,2
same,immunogenicity in clinical trial in prostate cancer patients with different HLA-DR alleles,anti-survivin T cells; in vivo,broad immunogenicity
same,"patients who reacted to the peptide (IFN-g ELISPOT, +/-ICS)","anti-survivin T cells; of the 19 patients vaccinated, prostate carcinoma",16
same,HLA-DR antigens for which in vitro binding was obtained,[3],"HLA-DR1, 3, 4 and 11"
KVFAGIPTV (listed as Homo sapiens) [PTP-005],Positive donors/donors tested,CD8+ T cells [1],100%
same,Positive wells/wells tested,CD8+ T cells [1],52%
SLWAGVVVL (listed as Homo sapiens) [CHI-001],Positive donors/donors tested,CD8+ T cells [1],100%
same,Positive wells/wells tested,CD8+ T cells [1],63%
same,in vitro immunogenicity in glioblastoma patients,CD8+ T cells [2],immunogenic to a similar extent compared with healthy donors
